What is called IC50 is the concentration needed to halve the response being measured. A higher IC50 goes with lower potency. The bioavailability is dose-corrected exposure relative to a reference, in per cent. As usually defined, the clearance is the volume of plasma or blood freed of the substance per unit of time.

Counter-ions that a name gives are not always drawn.

This is an account of results in US12492215B2, “Pyrrolotriazine compounds acting as MNK inhibitor” (JUMBO DRUG BANK CO., LTD., priority 2019, dated 2025).

The target in one series is MNK1 (h) protein kinase (Homo sapiens (Human), UniProt Q9BUB5). The experiment in a line: Inhibitory activity against MNK1 protein kinase (Kinase HotSpot Profiling, 33P-ATP). Format: biochemical. The conditions noted are these: 120 min room temperature. As to the method: 2. In Vitro Evaluation of Inhibitory Activity of Compound Disclosed Herein Against MNK1 Protein Kinase
Purpose of experiment: to test the inhibitory activity of the compound against MNK1 protein kinase
Experimental materials: assay buffer: 20 mM 4-hydroxyethylpiperazine ethanesulfonic acid (pH 7.5), 10 mM magnesium chloride, 1 mM ethylene glycol-bis-(2-aminoethylether)-N,N,N′,N′-tetraacetic acid, 0.02% polyoxyethylene lauryl ether, 0.02 mg/mL bovine serum albumin, 0.1 mM sodium vanadate, 2 mM dithiothreitol, and 1% DMSO.
Experimental operation: Mnk1 protein kinase inhibitory activity assays were performed using the Kinase HotSpot Profiling service from Reaction Biology Corp. The substrate was added to a freshly prepared buffer, followed by addition of MNK1 (h). The mixture was stirred homogeneously. Serially diluted DMSO solution containing the compounds to be tested (3-fold serial dilution, starting from 3 μM) was added by using Echo550, and then ^33P-ATP (final intensity of radioactivity: 0.01 μCi/μl) was added to initiate the reaction. The mixture was pre-incubated at room temperature for 120 min. […] The concentration of the radioactive phosphorylated substrate remaining on the filter paper was measured.
The protein kinase inhibitory activity of the compound was expressed as a percentage of the residual protein kinase activity relative to the blank substrate (DMSO alone). […]

Series [1] can be described thus: Pharmacokinetic evaluation in mice. The conditions noted are these: male, CD-1, mouse, plasma. Format: in vivo, CD-1 mice. As to the method: 4. Pharmacokinetic Evaluation of Compounds Disclosed Herein
Purpose of experiment: to test pharmacokinetic parameters of the compounds in CD-1 mice
Experimental materials: CD-1 mice (Male, 7-9 weeks age, Shanghai Sippe-Bk Lab Animal Co., Ltd.)
Experimental operation: pharmacokinetic characteristics of the compounds after intravenous injection and oral administration for the rodent were tested by a standard scheme, and the candidate compounds were each formulated into a clear solution or a uniform suspension in the experiments and intravenously administered and intragastrically administered once to a mouse. The vehicle for the intravenous injection and oral administration was […] hydroxypropyl-β-cyclodextrin aqueous solution or normal saline solution. […] Two mice were subjected to intravenous injection at a dose of 0.5 mg/kg, and plasma samples were collected at 0 h (before administration) and 0.083, 0.25, 0.5, 1, 2, 4, 8, 12 and 24 h (after administration); the other two mice were subjected to intragastric administration at a dose of 2 mg/kg, and plasma samples were collected at 0 h (before administration) and 0.25, 0.5, 1, 2, 4, 8, 12 and 24 h (after administration). Whole blood samples within 24 h were collected and each centrifuged at 3000 g for 10 min. The supernatant was separated to obtain plasma sample, and acetonitrile solution containing internal standard whose volume is […] that of the plasma sample was added to precipitate the protein. The mixture was vortexed at 800 rpm for 10 min, and then 1 μL of supernatant was taken for injection. Plasma concentrations were quantitatively analyzed by LC-MS/MS method, and pharmacokinetic parameters, such as peak concentration (Cmax), clearance (CL), half-life (T1/2), tissue distribution (Vdss), area under the plasma drug concentration-time curve (AUC0-last) and bioavailability (F), were calculated.

Series [2] relates to eIF4E phosphorylation of HCT116 cell strain. In words: Inhibition of eIF4E phosphorylation in HCT116 cell strain (AlphaLISA p-eIF4E Ser209). Format: cell-based. To be noted: Homo sapiens, HCT-116; HCT116 cells, 3 h incubation. The text has this:
3. In Vitro Evaluation of Inhibitory Activity of Compounds Disclosed Herein Against eIF4E Phosphorylation Purpose of experiment: to test the inhibition (IC50) of the compounds against eIF4E phosphorylation of HCT116 cell strain. Experimental materials: HCT116 cells (ATCC), RPM11640 medium (Life technology), fetal bovine serum (Hyclone), double antibodies (penicillin, streptomycin) (Millipore), phosphate buffer (Corning), 384-well cell plate (PerkinElmer), and AlphaLISA® SureFire® Ultra™ p-eIF4E (Ser209) Assay Kit (PerkinElmer). Experimental operation: HCT116 cells were digested to make a cell suspension, which was then plated in a 96-well plate. The cell plate was then placed in an incubator for overnight incubation. Compounds were diluted to corresponding concentrations and added to the cell plate, and the resulting mixture was incubated for 3 h. The cells were subsequently lysed with a lysis buffer, and the lysate was transferred to a 384-well plate. A mixed receptor was freshly prepared according to the kit instructions and added to the 384-well plate, and the mixture was incubated at room temperature for 1 h. Then a mixed donor was freshly prepared according to the kit instructions and added to the 384-well plate, and the resulting mixture was incubated at room temperature for 1 h. The signals were read on EnVision using the standard AlphaLISA program, curves were fitted using Graphpad prism, and the IC50 values were calculated.
On the technique in general: Alpha assays give light when donor and acceptor beads are brought close together.

Another series deals with MNK2 (h) protein kinase (Homo sapiens (Human), UniProt Q9HBH9). In words: Inhibitory activity against MNK2 protein kinase (KinaseProfiler, 33P-ATP filter-binding). Format: biochemical. To be noted: myelin basic protein substrate, 40 min room temperature. On the procedure: 1. In Vitro Evaluation of Inhibitory Activity of Compounds Disclosed Herein Against MNK2 Protein Kinase
Purpose of experiment: to test the inhibitory activity of the compounds against MNK2 protein kinase
Experimental materials: assay buffer: 8 mM 3-(N-morpholino)propanesulfonic acid, 0.2 mM disodium ethylenediaminetetraacetate, 0.01% polyoxyethylene lauryl ether, 5% glycerol, 0.1% β-mercaptoethanol and 1 mg of bovine serum albumin
Experimental operation: Mnk2 protein kinase inhibitory activity assays were performed using the KinaseProfiler™ service from Eurofins Pharma Discovery Services UK Limited. Serially diluted DMSO solutions containing the compounds to be tested (3-fold serial dilution, starting from 10 μM), MNK2 (h) protein kinase and 0.33 mg/mL myelin basic protein were added to a freshly prepared buffer (pH 7.0), and then stirred homogeneously. The reaction was initiated by adding a mixture of ^33P-ATP (intensity of radioactivity: 10 μCi/μL) and 10 mM magnesium acetate. After the resulting mixture was reacted at room temperature for 40 min, the reaction was terminated by adding phosphoric acid to dilute to a concentration of 0.5%. 10 μL of the reaction solution was filtered using a P30 filtermat, and then the filtermat was washed four times with 0.425% phosphoric acid for 4 min each, followed by washing once with methanol. After drying, the intensity of radioactivity was determined using the Filter-Binding method.
The protein kinase inhibitory activity of the compounds was expressed as a percentage of the residual protein kinase activity relative to the blank substrate (DMSO alone). The Prism4 software package (GraphPad) was used to calculate IC50 values and fit curves.

Sequence of MNK1 (h) protein kinase (Q9BUB5 whole entry): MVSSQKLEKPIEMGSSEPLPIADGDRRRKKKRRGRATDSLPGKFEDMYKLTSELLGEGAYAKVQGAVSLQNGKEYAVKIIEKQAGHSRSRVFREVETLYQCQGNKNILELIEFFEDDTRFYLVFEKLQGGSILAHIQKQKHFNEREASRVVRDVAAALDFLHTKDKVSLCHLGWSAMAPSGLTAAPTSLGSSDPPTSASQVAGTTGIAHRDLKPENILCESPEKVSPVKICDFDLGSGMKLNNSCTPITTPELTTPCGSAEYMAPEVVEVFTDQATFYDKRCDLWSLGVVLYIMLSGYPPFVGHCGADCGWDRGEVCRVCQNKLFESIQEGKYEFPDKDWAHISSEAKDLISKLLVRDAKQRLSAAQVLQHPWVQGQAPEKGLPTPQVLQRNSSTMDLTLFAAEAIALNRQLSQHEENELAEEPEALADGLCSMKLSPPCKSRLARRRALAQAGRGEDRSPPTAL
Sequence of MNK2 (h) protein kinase (Q9HBH9 whole entry): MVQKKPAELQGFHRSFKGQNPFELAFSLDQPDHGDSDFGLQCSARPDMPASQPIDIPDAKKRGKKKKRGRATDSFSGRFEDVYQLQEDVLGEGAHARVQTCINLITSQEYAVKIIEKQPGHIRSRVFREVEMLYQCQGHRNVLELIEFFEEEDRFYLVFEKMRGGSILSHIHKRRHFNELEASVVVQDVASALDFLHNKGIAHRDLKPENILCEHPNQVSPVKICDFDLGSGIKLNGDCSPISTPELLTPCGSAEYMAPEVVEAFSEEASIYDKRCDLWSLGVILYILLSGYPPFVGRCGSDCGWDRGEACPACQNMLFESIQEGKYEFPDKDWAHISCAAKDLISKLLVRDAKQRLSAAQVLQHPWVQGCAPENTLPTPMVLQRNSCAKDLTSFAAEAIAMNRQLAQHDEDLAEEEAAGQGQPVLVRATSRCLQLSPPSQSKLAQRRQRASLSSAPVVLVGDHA

`Cc1cc(Nc2ncnn3cc(OCCN4CCCC4)c(C)c23)c(=O)n2c1C(=O)NC21CCCCC1` [Compound 1 (hydrochloride)]: the IC50 against MNK1 (h) protein kinase turned out to be 54.6 nM; in series [2], 3.46 nM; on MNK2 (h) protein kinase it was 22 nM. In series [1] (PO 2 mg/kg vs IV 0.5 mg/kg, read-out: Bioavailability F), the bioavailability is 32.5%. The AUC(0-t) in series [1] (PO 2 mg/kg, read-out: Area under the plasma drug concentration-time curve AUC0-last PO) was determined as 0.956 µM·h. Moreover, the Cmax in series [1] (intragastric 2 mg/kg, intravenous 0.5 mg/kg (route of Cmax not given), read-out: Peak concentration Cmax) was 35.9 nM. Further, the clearance in series [1] (intravenous injection 0.5 mg/kg, read-out: Clearance CL) worked out at 33.3 mL/min/kg. For the same compound, the Vd in series [1] (intravenous injection 0.5 mg/kg, read-out: Tissue distribution Vdss) turned out to be 14.1 L/kg.
